Test results: PMC13110364, “Design, Synthesis, and Biological Evaluation of Novel Triazine‐Based Dual Histone Deacetylase/phosphatidylinositol 3‐kinase Inhibitors for Breast Cancer Therapy” (Chemmedchem, 2026)

Key:
HDAC4 = HDAC4 (Homo sapiens, UniProt P56524); test: Selectivity profile, single dose 0.5 µM, HDAC4; assay type: biochemical; conditions: remaining enzyme activity; single‐dose duplicate mode at 0.5 μM; read-out: Enzyme % activity (relative to DMSO controls) at 0.5 µM, HDAC4
Protocol: The inhibitory profiles of 5b and 5f were evaluated against selected HDAC isoforms (HDAC1, HDAC3, HDAC4, HDAC8, and HDAC10) and PI3K isoforms (PI3Kδ, PI3Kγ, and PI3Kβ) at a fixed concentration of 0.5 µM (Table 3). […] While we explored the phenyl ring in the linker region to achieve selectivity for the HDAC6 isoform, we still observed HDAC class I inhibition. […] It is important to highlight that PI3Kδ is mainly expressed in hematopoietic system and plays roles in leukocyte signaling, T‐cell activation, and immune cell trafficking. FDA‐approved drug idelalisib is a selective PI3Kδ inhibitor in B‐cell malignancies; however, this drug is also related to disruption of the immune system, which can lead to immune manifestations, such as infections. In addition, while isoform‐selective PI3K inhibitors are well tolerated, pan‐inhibition of PI3K is less expected that compensatory mechanisms by the action of other PI3Ks can take place. Thus, a more balanced profile of PI3K inhibition can lead to an overall lack of toxicity of PI3K inhibitors.

LY2 breast cancer cells = test: MTS cell viability assay, LY2; assay type: cell-based; conditions: 72 h treatment
Protocol: The cell viability effects of compounds 5a–5f were assessed in LY2, JIMT1, and MDA‐MB‐231 breast cancer cell lines using the 3‐(4,5‐dimethylthiazol‐2‐yl)‐5‐(3‐carboxymethoxyphenyl)‐2‐(4‐sulfophenyl)‐2H‐tetrazolium (MTS) assay. The MTS assay measures metabolic viability and serves as a first‐pass screen.
JIMT‐1 (DSMZ ACC 589) and MDA‐MB‐231 (ATCC HTB‐26) breast cancer cell lines were maintained in Dulbecco's Modified Eagle Medium (DMEM) High Glucose with L‐glutamine (D5796, Sigma) supplemented with 10% fetal calf serum. MCF7‐derivative LY2 breast cancer cells were previously described (REF: PMID: 33420368). LY2 cells were cultured in phenol red‐free MEM (PRF‐MEM; 51 200‐046, Gibco) supplemented with 10% charcoal dextran‐stripped fetal calf serum (CDS‐FCS; F6765, Merck), 2 mmol/L L‐glutamine (G7513, Merck), and 10^−8 mol/L 4‐hydroxytamoxifen (4‐OHT; H7904, Merck). All cell lines were maintained at 37°C in a humidified incubator with 5% CO2 and regularly authenticated and tested for mycoplasma.
Cell viability was evaluated in response to increasing concentrations of 5a‐5f (0.3, 1, 3, 10, and 30 μM) or vehicle control (0.1% DMSO). LY2, JIMT1, and MDA‐MB‐231 cells were seeded at a density of 2,500 cells per well in 96‐well plates with a total volume of 100 μL per well. Prior to treatment, cells were serum‐deprived for 24 h. Following serum depletion, cells were treated in complete growth medium for 72 h. Cell viability was assessed using the MTS assay (G1111, Promega) according to the manufacturer's instructions. Absorbance was measured at 495 nm using a BioTek Synergy HTX Multi‐Mode Microplate Reader (Agilent). Results were normalized to the vehicle control (DMSO), and the half‐maximal inhibitory concentration (IC50) of the inhibitors was determined by nonlinear regression (curve fit) using a four‐parameter variable slope model.

class I HDAC (acetyl H3) = test: Western blot, acetyl H3 in treated cells; assay type: cell-based; conditions: LY2, JIMT1, MDA‐MB‐231 cells, 24 h; seen at 10 µM
Protocol: FIGURE 4 Cell‐based evaluation of compounds 5a– 5f. Dose‐dependent effects of compound treatment (5a‐5f) on breast cancer cell viability across JIMT1 (A), MDA‐MB‐231 (B), and LY2 (C). Cell‐based evaluation of HDAC and PI3K inhibition by compounds 5b and 5f by Western blot. JIMT1 cells were treated for 24 h with compounds 5b (D) and 5f (E) at the concentrations of 1, 3, and 10 µM or with vehicle control (0.1% DMSO). Protein expression levels were analyzed by western blot using antibodies against acetylated α‐tubulin, acetyl H3 (H3K9Ac and H3K14Ac), phospho‐AKT (p‐AKT), and total AKT. GAPDH served as a loading control.
To investigate if 5b and 5f were acting as multitarget inhibitors, we evaluated the modulation of HDAC6 and PI3K signaling pathways by western blot analysis (Figure 4D,E). […]
Total protein samples were extracted from treated cells using a lysis buffer containing 0.1% IGEPAL CA‐630 (I8896, Merck), 0.5% deoxycholic acid (D2510, Merck), and 0.1% SDS (L3771, Merck), freshly supplemented with protease and phosphatase inhibitor cocktail (78442, Thermo Fisher Scientific). Protein concentrations were quantified using the Pierce BCA Protein Assay Kit (23227, Thermo Fisher Scientific) according to the manufacturer's instructions. […] Chemiluminescence signals were detected using the Amersham Imager 680 Imaging System. […]

Sequence of HDAC4 (P56524 whole entry, canonical isoform): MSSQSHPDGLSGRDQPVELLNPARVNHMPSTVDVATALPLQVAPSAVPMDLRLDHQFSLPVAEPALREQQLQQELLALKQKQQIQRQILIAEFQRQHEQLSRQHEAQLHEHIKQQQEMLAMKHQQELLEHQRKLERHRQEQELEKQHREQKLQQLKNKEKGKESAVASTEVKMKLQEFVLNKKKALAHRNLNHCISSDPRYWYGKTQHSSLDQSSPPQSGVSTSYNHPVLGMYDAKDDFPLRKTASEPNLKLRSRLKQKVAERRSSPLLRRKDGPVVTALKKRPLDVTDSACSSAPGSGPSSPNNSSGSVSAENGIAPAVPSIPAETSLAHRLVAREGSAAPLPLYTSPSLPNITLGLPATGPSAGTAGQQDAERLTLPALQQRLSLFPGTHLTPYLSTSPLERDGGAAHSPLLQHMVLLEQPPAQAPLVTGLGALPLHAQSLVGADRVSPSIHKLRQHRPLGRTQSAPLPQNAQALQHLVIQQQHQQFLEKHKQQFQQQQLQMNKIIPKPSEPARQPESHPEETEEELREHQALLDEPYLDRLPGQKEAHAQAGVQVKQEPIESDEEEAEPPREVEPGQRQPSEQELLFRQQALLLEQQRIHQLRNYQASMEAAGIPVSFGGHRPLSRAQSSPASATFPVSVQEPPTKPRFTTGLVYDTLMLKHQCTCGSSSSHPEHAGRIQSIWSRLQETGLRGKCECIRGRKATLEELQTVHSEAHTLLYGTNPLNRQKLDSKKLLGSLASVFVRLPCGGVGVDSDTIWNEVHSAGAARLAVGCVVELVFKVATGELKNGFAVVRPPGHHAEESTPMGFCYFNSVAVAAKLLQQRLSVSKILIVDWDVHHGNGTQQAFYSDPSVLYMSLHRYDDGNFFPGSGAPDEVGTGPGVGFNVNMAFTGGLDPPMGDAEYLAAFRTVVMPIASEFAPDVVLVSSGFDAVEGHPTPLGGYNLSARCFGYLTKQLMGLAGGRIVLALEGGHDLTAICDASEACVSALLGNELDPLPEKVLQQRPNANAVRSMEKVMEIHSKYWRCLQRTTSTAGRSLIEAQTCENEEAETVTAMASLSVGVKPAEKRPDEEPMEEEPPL

remaining activity at 0.5 µM (HDAC4) | IC50 (LY2 breast cancer cells) | SMILES | Acetylation of H3, western blot (class I HDAC (acetyl H3))
98.4% | 8.81 ± 0.59 µM | COc1ccc(-c2nc(NCc3ccc(C(=O)NO)cc3)nc(N3CCOCC3)n2)cn1 [Compound 5f, N‐Hydroxy‐4‐(((4‐(6‐Methoxypyridin‐3‐yl)‐6‐Morpholino‐1,3,5‐Triazin‐2‐yl)Amino)Methyl)Benzamide] | increased levels of acetylation of H3
89% | 4.68 ± 1.34 µM | O=C(NO)c1ccc(CNc2nc(-c3cccc(O)c3)nc(N3CCOCC3)n2)cc1 [Compound 5b, N‐Hydroxy‐4‐(((4‐(3‐Hydroxyphenyl)‐6‐Morpholino‐1,3,5‐Triazin‐2‐yl)Amino)Methyl)Benzamide] | increased levels of acetylation of H3
